Results from BigSolDB 2.1.

O=C(O)c1ccccc1O
solubility (mole fraction)
Details	278.15 K	283.15 K	288.15 K	293.15 K	298.15 K	303.15 K	308.15 K	313.15 K	318.15 K
in ethanol	0.108	0.117	0.126	0.136	0.145	0.157	0.17	0.182	0.197
in n-butanol	0.106	0.116	0.126	0.137	0.148	0.16	0.174	0.186	0.201
in n-heptanol	0.117	0.128	0.138	0.148	0.16	0.171	0.185	0.197	0.21
in n-hexanol	0.116	0.127	0.137	0.146	0.158	0.169	0.182	0.195	0.209
in n-pentanol	0.113	0.123	0.132	0.144	0.155	0.166	0.18	0.192	0.206
in n-propanol	0.102	0.111	0.12	0.131	0.143	0.154	0.168	0.181	0.196
